# Entries after “also recorded” stand apart in the source; their conditions may differ. Where two headings read alike, the source gives them in different places.
# Legend:
# [1] = Counterscreen: AzMC fluorescence signal generated by the H2S donor GYY4137
# HCT116 cells [2] = test: Cell proliferation, xCELLigence system; assay type: cell-based, human; conditions: Cell Index, 48 h, concentration in the value
# [3] = biological target: T1, Recombinant full length human CBS (Homo sapiens, UniProt P35520); test: AzMC fluorescence assay of CBS-derived H2S production; assay type: biochemical; conditions: for % inhibition of CBS-induced AzMC fluorescence: copper compounds, mean ± SEM, n = 3
# T1 sequence (P35520 1-551): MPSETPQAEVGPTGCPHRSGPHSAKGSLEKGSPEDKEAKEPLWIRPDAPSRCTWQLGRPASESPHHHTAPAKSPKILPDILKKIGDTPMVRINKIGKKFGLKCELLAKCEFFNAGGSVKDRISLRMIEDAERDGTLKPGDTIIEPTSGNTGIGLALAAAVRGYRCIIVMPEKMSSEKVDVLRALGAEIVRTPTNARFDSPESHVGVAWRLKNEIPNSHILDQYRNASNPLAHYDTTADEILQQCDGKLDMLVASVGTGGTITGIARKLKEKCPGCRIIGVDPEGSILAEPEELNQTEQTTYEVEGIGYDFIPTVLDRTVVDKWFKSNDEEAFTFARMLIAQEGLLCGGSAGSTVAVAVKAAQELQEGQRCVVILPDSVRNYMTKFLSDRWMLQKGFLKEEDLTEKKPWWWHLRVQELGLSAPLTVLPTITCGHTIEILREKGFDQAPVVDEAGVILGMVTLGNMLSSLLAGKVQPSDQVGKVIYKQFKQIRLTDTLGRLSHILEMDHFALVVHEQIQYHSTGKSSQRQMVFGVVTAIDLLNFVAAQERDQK
# HCT116 cells [4] = test: Mitochondrial function, MTT assay; assay type: cell-based, human; conditions: 48 h
# HCT116 cells [5] = test: Cytotoxicity, lactate dehydrogenase; assay type: cell-based, human; conditions: 48 h
# [6] = biological target: T1, Recombinant full length human CBS; test: Methylene blue assay of CBS-derived H2S; assay type: biochemical; conditions: read-out: % inhibition of CBS-induced methylene blue signal
# CSE = conditions: cited from earlier work
# CBS = conditions: cited from earlier work; for % inhibition of CBS activity: 1 mM
# [7] = read-out: % inhibition of CBS-induced AzMC fluorescence
smiles,measurement,setting,value
"[Cl][Cu][Cl] [CuCl2, copper(II) chloride]",% inhibition of GYY4137-induced AzMC fluorescence,"[1]; copper compounds, 0.1 μM, mean ± SEM, n = 3",1 ± 1%
same,% inhibition of GYY4137-induced AzMC fluorescence,"[1]; copper compounds, 0.3 μM, mean ± SEM, n = 3",10 ± 1%
same,% inhibition of GYY4137-induced AzMC fluorescence,"[1]; copper compounds, 1 μM, mean ± SEM, n = 3",14 ± 1%
same,Effect on HCT116 cell proliferation (words),HCT116 cells [2],only inhibited HCT116 cells proliferation at the highest concentration tested (1 mM)
same,Effect on HCT116 cell proliferation (words),HCT116 cells [2]; listed as copper ions,"up to 300 μM, did not inhibit HCT116 cell proliferation"
same,% inhibition of CBS-induced AzMC fluorescence,[3]; 0.1 μM,36 ± 1%
same,% inhibition of CBS-induced AzMC fluorescence,[3]; 0.3 μM,60 ± 2%
same,% inhibition of CBS-induced AzMC fluorescence,[3]; 1 μM,90 ± 1%
same,IC50,"[3]; read-out: IC50, inhibition of recombinant CBS (CBS-induced AzMC fluorescence), cell-free, 2 mM L-cysteine and homocysteine",~0.2 µM
same,MTT conversion in HCT116 cells,HCT116 cells [4],decreased MTT conversion
same,Cytotoxicity / LDH release in HCT116 cells,HCT116 cells [5],paradoxical reduction in LDH activity
"Cn1ncnc2c(=O)n(C)c(=O)nc1-2 [NSC67078, 1,6-dimethyl-pyrimido[5,4-e]-1,2,4-triazine-5,7(1H,6H)-dione]",inhibition at 1 µM,[6],59 ± 2%
same,inhibition at 10 µM,[6],73 ± 1%
same,inhibition at 30 µM,[6],95 ± 1%
same,% inhibition of GYY4137-induced AzMC fluorescence,"[1]; 1 μM, mean ± SEM, n = 3",25 ± 1%
same,% inhibition of GYY4137-induced AzMC fluorescence,"[1]; 10 μM, mean ± SEM, n = 3",65 ± 1%
same,% inhibition of GYY4137-induced AzMC fluorescence,"[1]; 30 μM, mean ± SEM, n = 3",78 ± 1%
same,IC50,"[1]; read-out: IC50, inhibition of GYY4137-induced AzMC fluorescence, scavenging/non-specific effects",~6 µM
same,Potency of CSE inhibition relative to CBS inhibition (fold lower),CSE,3 fold
same,IC50,[3],~1 µM
same,inhibition at 1 µM,[3]; [7],47 ± 1%
same,inhibition at 10 µM,[3]; [7],88 ± 1%
same,inhibition at 30 µM,[3]; [7],93 ± 1%
same,MTT conversion in HCT116 cells,HCT116 cells [4],suppression of MTT conversion
"O=C(OC[C@H]1O[C@@H](OC(=O)c2cc(O)c(O)c(OC(=O)c3cc(O)c(O)c(O)c3)c2)[C@H](OC(=O)c2cc(O)c(O)c(OC(=O)c3cc(O)c(O)c(O)c3)c2)[C@@H](OC(=O)c2cc(O)c(O)c(OC(=O)c3cc(O)c(O)c(O)c3)c2)[C@@H]1OC(=O)c1cc(O)c(O)c(OC(=O)c2cc(O)c(O)c(O)c2)c1)c1cc(O)c(O)c(OC(=O)c2cc(O)c(O)c(O)c2)c1 [Tannic acid, 2,3-dihydroxy-5-({[(2R,3R,4S,5R,6R)-3,4,5,6-tetrakis({3,4-dihydroxy-5-[(3,4,5-trihydroxyphenyl)carbonyloxy]phenyl}carbonyloxy)oxan-2-yl]methoxy}carbonyl)phenyl 3,4,5-trihydroxybenzoate]",inhibition at 10 µM,[6],24 ± 9%
same,inhibition at 30 µM,[6],46 ± 3%
same,inhibition at 100 µM,[6],56 ± 3%
same,% inhibition of GYY4137-induced AzMC fluorescence,"[1]; 10 μM, mean ± SEM, n = 3",−1 ± 1%
same,% inhibition of GYY4137-induced AzMC fluorescence,"[1]; 30 μM, mean ± SEM, n = 3",3 ± 2%
same,Confirmation (% inhibition of GYY4137-induced AzMC fluorescence),"[1]; 30 μM, mean ± SEM, n = 3",3 ± 2%
same,% inhibition of GYY4137-induced AzMC fluorescence,"[1]; 100 μM, mean ± SEM, n = 3",8 ± 3%
same,Effect on HCT116 cell proliferation (words),HCT116 cells [2],"concentration-dependently inhibited proliferation, starting with 10 μM; also recorded: complete inhibition was seen at 100 μM"
same,IC50,[3],~40 µM
same,inhibition at 10 µM,"[3]; read-out: % inhibition of CBS-induced AzMC fluorescence, 10 μM, mean ± SEM, n = 3",28 ± 2%
same,inhibition at 30 µM,"[3]; read-out: % inhibition of CBS-induced AzMC fluorescence, 30 μM, mean ± SEM, n = 3",43 ± 1%
same,inhibition at 100 µM,"[3]; read-out: % inhibition of CBS-induced AzMC fluorescence, 100 μM, mean ± SEM, n = 3",75 ± 1%
same,inhibition at 30 µM,"[3]; read-out: Confirmation (% inhibition of CBS-induced AzMC fluorescence), 30 μM, mean ± SEM, n = 3",43 ± 1%
same,inhibition at 30 µM,"[3]; read-out: Initial screen (% inhibition of CBS-induced AzMC fluorescence), 30 μM",73%
same,Cytotoxicity / LDH release in HCT116 cells,HCT116 cells [5],without signs of cytotoxicity
NNC(=O)c1ccncc1 [isoniazid],% inhibition of CBS activity,CBS,15–20%
"NNCc1ccc(O)c(O)c1O [2,3,4-trihydroxybenzylhydrazine]",Effect on HCT116 cell proliferation (words),HCT116 cells [2],inhibited HCT116 cell proliferation in vitro at 10–300 μM
same,inhibition at 30 µM,"[3]; read-out: % inhibition of recombinant CBS activity, 30 μM, standard assay conditions",51 ± 2%
same,inhibition at 100 µM,"[3]; read-out: % inhibition of recombinant CBS activity, 100 μM, standard assay conditions, freshly dissolved",82%
same,MTT conversion in HCT116 cells,HCT116 cells [4],reduced MTT conversion at 300 μM
same,Cytotoxicity / LDH release in HCT116 cells,HCT116 cells [5],did not exert cytotoxic effects
N[C@@H]1CON=C1O [D-cycloserine],% inhibition of CBS activity,CBS,15–20%
C#CCC(N)C(=O)O (centres unmarked) [PAG],CBS inhibition,CBS,is not an inhibitor of CBS
